Activity calls are given as the source filed them. The calls are words filed in the database; no cut-off is given here.
Columns and labels:
[1] = molecular target: Alpha-2A adrenergic receptor (Homo sapiens) (UniProt P08913); test: Inhibition of human adrenergic alpha2A receptor at 10 uM relative to control
[2] = molecular target: D(2) dopamine receptor (Homo sapiens) (UniProt P14416); test: Inhibition of human dopamine D2S receptor at 10 uM relative to control
[3] = molecular target: T1, Transcription factor SOX-18 (Mus musculus) (UniProt P43680); test: Competitive binding affinity to full-length mouse SOX18 expressed in Sf9 cells assessed as reduction in SOX1 8- DNA binding using FAM-labelled Prox1 -DNA element at 1 to 1000 uM incubated for 5 mins in dark at room temperature, 10 mins at 37 degC and 30 mins at room temperature by fluorescence polarization assay
T1 sequence (whole entry): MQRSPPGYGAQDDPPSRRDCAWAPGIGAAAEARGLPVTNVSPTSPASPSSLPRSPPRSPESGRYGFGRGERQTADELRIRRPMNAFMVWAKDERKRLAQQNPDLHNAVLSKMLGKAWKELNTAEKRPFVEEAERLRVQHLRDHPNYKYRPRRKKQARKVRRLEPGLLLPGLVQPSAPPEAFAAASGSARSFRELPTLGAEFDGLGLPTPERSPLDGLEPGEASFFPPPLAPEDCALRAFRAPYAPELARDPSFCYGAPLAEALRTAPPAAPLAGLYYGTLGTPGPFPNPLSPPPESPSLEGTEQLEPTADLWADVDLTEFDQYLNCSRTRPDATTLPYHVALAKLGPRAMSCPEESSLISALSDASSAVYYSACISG

Danio rerio [4] = test: Induction of arterial and venous genes dys-regulation in zebrafish larvae harboring fli1 a:eGFP,-6.5kdrl:mCherry assessed as effect on dll4 gene expression at 1.5 uM dosed starting from 16 hpf and measured at 24 and 48 hpf by qRT-PCR analysis; type: functional, organism-based
[5] = molecular target: D(1A) dopamine receptor (Homo sapiens) (UniProt P21728); test: Inhibition of human dopamine D1 receptor at 10 uM relative to control
Cricetinae = test: Inhibition of hamster KATP channel at 10 uM relative to control
[6] = Plasma concentration in BALB/c mouse xenografted with mouse 4T1.2 cells at 25 mg/kg/day for 10 days measured at day 12; type: ADME, organism-based
[7] = Plasma concentration in BALB/c mouse xenografted with mouse 4T1.2 cells at 25 mg/kg/day for 10 days measured at day 7; type: ADME, organism-based
Mus musculus = species: Mus musculus; test: Inhibition of mouse phorbol ester receptor at 10 uM relative to control
[8] = molecular target: Protein max (Homo sapiens) (UniProt P61244); test: Inhibition of MAX in HUVEC assessed as reduction of MAX transcriptional activity by genome-wide RNA-seq and ChlP-seq analysis; type: cell-based
Chain of Protein max (Homo sapiens) (P61244 whole entry): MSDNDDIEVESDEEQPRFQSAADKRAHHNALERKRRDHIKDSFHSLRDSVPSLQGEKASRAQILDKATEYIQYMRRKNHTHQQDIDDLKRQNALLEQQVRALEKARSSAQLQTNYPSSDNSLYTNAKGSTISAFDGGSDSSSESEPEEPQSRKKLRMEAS

[9] = molecular target: NAD-dependent protein deacetylase sirtuin-2 (Homo sapiens) (UniProt Q8IXJ6); test: Inhibition of human Sirtuin2 at 10 uM relative to control
Chain of NAD-dependent protein deacetylase sirtuin-2 (Homo sapiens) (Q8IXJ6 whole entry): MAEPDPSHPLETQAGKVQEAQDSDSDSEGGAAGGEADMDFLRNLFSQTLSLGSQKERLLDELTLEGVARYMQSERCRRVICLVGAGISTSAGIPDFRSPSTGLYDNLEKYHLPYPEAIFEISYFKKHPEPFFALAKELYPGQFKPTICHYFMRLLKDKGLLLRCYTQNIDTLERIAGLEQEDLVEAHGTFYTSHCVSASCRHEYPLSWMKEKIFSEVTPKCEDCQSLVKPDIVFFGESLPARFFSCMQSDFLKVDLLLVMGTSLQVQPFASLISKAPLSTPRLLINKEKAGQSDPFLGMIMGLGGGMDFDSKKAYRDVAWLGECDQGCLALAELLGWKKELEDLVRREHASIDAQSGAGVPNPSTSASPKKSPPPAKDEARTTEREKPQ

[10] = molecular target: Histone deacetylase 4 (Homo sapiens) (UniProt P56524); test: Inhibition of human HDAC4 at 10 uM relative to control
Chain of Histone deacetylase 4 (Homo sapiens) (P56524 whole entry): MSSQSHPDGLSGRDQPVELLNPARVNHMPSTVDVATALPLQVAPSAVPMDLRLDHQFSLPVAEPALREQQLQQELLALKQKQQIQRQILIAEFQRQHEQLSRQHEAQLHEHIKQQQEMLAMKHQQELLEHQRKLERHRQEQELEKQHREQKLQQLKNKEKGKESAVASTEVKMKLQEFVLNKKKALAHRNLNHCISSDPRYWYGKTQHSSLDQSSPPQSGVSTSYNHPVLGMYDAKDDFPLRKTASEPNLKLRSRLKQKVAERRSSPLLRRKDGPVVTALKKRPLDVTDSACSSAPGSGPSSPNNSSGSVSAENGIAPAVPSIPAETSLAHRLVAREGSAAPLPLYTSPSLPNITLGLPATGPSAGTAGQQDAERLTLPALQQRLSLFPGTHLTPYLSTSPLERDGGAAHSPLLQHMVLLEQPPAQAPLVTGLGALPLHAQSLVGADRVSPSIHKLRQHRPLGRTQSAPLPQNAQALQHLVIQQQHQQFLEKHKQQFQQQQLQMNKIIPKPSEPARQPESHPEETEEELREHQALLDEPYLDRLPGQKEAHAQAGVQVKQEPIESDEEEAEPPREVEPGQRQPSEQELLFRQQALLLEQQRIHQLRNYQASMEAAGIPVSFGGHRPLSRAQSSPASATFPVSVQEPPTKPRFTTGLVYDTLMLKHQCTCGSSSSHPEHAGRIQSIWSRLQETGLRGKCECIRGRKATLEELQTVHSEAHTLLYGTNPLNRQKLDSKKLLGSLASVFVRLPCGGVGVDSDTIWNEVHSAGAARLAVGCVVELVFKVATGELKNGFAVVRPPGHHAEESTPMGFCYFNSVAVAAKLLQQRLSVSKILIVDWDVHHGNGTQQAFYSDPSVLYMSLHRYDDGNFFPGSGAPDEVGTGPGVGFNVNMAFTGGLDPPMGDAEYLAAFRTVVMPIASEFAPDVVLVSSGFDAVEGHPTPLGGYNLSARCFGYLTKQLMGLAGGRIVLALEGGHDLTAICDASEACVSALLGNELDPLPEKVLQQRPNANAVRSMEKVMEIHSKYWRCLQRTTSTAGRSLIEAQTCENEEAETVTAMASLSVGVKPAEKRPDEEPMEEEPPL

[11] = Cytotoxicity in African green monkey COS7 cells assessed as reduction in cell viability incubated for 24 hrs by Alamar blue dye based assay; parameters: species or system COS-7; conditions: chlorocebus aethiops
hERG (KCNH2) = hERG (KCNH2) (Homo sapiens, UniProt Q12809); test: Inhibition of human ERG at 10 uM relative to control
Danio rerio [12] = test: Induction of arterial and venous genes dys-regulation in zebrafish larvae harboring fli1 a:eGFP,-6.5kdrl:mCherry assessed as effect on efnb2a gene expression at 1.5 uM dosed starting from 16 hpf and measured at 24 and 48 hpf by qRT-PCR analysis; type: functional, organism-based
[13] = molecular target: Cannabinoid receptor 1 (Homo sapiens) (UniProt P21554); test: Inhibition of human CB1 receptor at 10 uM relative to control
Chain of Cannabinoid receptor 1 (Homo sapiens) (P21554 whole entry): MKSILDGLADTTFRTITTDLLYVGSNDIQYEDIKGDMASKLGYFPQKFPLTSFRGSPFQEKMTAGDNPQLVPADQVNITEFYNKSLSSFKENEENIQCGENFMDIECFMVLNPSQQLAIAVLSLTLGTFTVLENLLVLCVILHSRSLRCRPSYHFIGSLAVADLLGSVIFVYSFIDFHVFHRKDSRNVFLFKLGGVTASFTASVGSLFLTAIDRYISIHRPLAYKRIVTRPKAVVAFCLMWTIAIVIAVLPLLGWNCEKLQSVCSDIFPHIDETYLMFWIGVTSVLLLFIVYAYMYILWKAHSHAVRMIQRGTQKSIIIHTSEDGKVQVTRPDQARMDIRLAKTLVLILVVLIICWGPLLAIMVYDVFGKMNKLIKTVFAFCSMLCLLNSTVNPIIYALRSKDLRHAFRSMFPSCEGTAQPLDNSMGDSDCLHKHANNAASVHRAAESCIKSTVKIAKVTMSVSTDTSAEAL

[14] = molecular target: Transcription factor Jun (Homo sapiens) (UniProt P05412); test: Inhibition of c-JUN in HUVEC assessed as reduction of c-JUN transcriptional activity by genome-wide RNA-seq and ChlP-seq analysis; type: cell-based
Chain of Transcription factor Jun (Homo sapiens) (P05412 whole entry): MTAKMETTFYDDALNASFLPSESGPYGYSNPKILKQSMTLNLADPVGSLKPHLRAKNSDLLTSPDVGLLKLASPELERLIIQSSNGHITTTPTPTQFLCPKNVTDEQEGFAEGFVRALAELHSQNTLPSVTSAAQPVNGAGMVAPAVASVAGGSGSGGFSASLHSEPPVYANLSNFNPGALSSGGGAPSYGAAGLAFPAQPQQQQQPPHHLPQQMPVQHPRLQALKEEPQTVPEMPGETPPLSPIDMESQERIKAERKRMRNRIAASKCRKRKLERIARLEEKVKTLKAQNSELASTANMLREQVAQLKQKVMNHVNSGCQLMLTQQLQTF

Danio rerio [15] = test: Induction of arterial and venous genes dys-regulation in zebrafish larvae harboring fli1 a:eGFP,-6.5kdrl:mCherry assessed as effect on hey1 gene expression at 1.5 uM dosed starting from 16 hpf and measured at 24 and 48 hpf by qRT-PCR analysis; type: functional, organism-based
Rattus norvegicus [16] = species: Rattus norvegicus; test: Inhibition of rat rolipram binding site at 10 uM relative to control
4T1.2 [17] = test: Antitumor activity against mouse 4T1.2 cells implanted in BALB/c mouse assessed as median disease latency time at 5 to 50 mg/kg/day for 10 days and measured up to 60 days after tumor inoculation; type: functional, organism-based
[18] = molecular target: Myc proto-oncogene protein (Homo sapiens) (UniProt P01106); test: Inhibition of c-MYC in HUVEC assessed as reduction of c-MYC transcriptional activity by genome-wide RNA-seq and ChlP-seq analysis; type: cell-based
[19] = molecular target: Histone-lysine N-methyltransferase EZH2 (Homo sapiens) (UniProt Q15910); test: Inhibition of EZH2 in HUVEC assessed as reduction of EZH2 transcriptional activity by genome-wide RNA-seq and ChlP-seq analysis; type: cell-based
Chain of Histone-lysine N-methyltransferase EZH2 (Homo sapiens) (Q15910 whole entry, looked up): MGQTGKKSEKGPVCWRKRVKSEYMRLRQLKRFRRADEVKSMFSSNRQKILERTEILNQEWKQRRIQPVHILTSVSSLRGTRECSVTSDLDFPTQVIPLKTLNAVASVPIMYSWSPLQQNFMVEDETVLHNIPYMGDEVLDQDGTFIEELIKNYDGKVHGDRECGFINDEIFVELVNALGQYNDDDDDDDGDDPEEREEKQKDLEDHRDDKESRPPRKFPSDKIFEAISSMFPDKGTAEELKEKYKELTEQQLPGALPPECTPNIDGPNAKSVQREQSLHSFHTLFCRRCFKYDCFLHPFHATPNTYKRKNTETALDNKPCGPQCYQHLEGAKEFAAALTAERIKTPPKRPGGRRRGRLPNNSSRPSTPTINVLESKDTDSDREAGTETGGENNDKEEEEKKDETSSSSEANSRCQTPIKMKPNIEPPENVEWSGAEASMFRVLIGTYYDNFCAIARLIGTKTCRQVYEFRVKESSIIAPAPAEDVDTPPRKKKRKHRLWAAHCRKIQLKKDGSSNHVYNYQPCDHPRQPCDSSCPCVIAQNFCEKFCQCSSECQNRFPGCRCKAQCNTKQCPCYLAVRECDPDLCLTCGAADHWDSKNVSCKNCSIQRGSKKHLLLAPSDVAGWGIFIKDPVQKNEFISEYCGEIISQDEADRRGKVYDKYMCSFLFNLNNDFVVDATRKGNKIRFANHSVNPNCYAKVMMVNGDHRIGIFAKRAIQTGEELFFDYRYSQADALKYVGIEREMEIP

[20] = molecular target: Mu-type opioid receptor (Homo sapiens) (UniProt P35372); test: Inhibition of human mu opioid receptor at 10 uM relative to control
Chain of Mu-type opioid receptor (Homo sapiens) (P35372 whole entry): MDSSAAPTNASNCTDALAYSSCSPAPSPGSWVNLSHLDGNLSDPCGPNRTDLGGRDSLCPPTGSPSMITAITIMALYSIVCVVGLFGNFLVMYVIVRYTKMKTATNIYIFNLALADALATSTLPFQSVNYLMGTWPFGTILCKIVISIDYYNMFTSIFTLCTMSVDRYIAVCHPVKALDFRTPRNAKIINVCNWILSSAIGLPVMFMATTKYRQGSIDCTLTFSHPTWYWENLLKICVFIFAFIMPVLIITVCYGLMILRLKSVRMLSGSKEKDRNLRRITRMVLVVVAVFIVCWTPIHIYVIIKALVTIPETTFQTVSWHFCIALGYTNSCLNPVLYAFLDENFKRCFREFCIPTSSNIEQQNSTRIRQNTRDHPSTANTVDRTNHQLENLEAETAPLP

[21] = molecular target: 5-hydroxytryptamine receptor 2B (Homo sapiens) (UniProt P41595); test: Inhibition of human 5HT2B receptor at 10 uM relative to control
Danio rerio [22] = test: Induction of arterial and venous genes dys-regulation in zebrafish larvae harboring fli1 a:eGFP,-6.5kdrl:mCherry assessed as effect on […] gene expression at 1.5 uM dosed starting from 16 hpf and measured at 24 and 48 hpf by qRT-PCR analysis; type: functional, organism-based
[23] = molecular target: Histone deacetylase 3 (Homo sapiens) (UniProt O15379); test: Inhibition of human HDAC3 at 10 uM relative to control
Chain of Histone deacetylase 3 (Homo sapiens) (O15379 whole entry): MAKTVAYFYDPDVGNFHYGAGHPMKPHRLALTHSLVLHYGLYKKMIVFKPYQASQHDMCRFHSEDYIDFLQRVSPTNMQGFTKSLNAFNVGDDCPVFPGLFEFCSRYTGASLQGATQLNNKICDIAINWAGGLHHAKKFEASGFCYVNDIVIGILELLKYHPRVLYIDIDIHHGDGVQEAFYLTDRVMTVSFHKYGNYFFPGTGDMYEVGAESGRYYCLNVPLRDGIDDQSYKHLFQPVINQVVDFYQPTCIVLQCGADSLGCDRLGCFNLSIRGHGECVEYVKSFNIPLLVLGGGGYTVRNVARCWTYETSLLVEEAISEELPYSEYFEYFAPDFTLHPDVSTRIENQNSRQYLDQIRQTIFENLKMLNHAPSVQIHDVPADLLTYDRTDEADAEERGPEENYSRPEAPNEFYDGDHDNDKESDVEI

Danio rerio [24] = test: Induction of arterial and venous genes dys-regulation in zebrafish larvae harboring fli1 a:eGFP,-6.5kdrl:mCherry assessed as effect on prox1a gene expression at 1.5 uM dosed starting from 16 hpf and measured at 24 and 48 hpf by qRT-PCR analysis; type: functional, organism-based
Danio rerio [25] = test: Induction of arterial and venous genes dys-regulation in zebrafish larvae harboring fli1 a:eGFP,-6.5kdrl:mCherry assessed as effect on cdh5 gene expression at 1.5 uM dosed starting from 16 hpf and measured at 24 and 48 hpf by qRT-PCR analysis; type: functional, organism-based
[26] = molecular target: Neuronal acetylcholine receptor (Homo sapiens) (UniProt P17787+P30926+P32297+P43681+Q15822+Q9UGM1+Q15825+P30532+P36544+Q9GZZ6+Q05901); test: Inhibition of human nAChR at 10 uM relative to control
4T1.2 [27] = test: Inhibition of tumor induced vascular response in mouse 4T1.2 cells implanted BALB/c mouse assessed as reduction in blood vessel coverage at 25 mg/kg/day for 10 days by bright field microscopy; type: functional, organism-based
Rattus norvegicus [28] = species: Rattus norvegicus; test: Inhibition of rat imidazoline I2 receptor at 10 uM relative to control
[29] = molecular target: Prostaglandin E2 receptor EP4 subtype (Homo sapiens) (UniProt P35408); test: Inhibition of human EP4 receptor at 10 uM relative to control

Chain of Alpha-2A adrenergic receptor (Homo sapiens) (P08913 whole entry): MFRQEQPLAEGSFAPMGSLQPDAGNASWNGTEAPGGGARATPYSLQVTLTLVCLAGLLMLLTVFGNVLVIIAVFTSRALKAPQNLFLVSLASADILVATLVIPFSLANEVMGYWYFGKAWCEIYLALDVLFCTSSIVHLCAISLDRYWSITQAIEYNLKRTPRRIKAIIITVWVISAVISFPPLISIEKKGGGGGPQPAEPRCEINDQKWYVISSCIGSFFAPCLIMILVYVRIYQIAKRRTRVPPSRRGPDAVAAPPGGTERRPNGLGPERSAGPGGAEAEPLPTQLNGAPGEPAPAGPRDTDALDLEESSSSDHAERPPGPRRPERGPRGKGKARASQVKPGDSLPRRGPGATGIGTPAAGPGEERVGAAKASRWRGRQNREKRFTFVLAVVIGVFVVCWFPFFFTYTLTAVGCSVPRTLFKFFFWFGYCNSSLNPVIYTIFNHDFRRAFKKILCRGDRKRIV
Chain of D(2) dopamine receptor (Homo sapiens) (P14416 whole entry): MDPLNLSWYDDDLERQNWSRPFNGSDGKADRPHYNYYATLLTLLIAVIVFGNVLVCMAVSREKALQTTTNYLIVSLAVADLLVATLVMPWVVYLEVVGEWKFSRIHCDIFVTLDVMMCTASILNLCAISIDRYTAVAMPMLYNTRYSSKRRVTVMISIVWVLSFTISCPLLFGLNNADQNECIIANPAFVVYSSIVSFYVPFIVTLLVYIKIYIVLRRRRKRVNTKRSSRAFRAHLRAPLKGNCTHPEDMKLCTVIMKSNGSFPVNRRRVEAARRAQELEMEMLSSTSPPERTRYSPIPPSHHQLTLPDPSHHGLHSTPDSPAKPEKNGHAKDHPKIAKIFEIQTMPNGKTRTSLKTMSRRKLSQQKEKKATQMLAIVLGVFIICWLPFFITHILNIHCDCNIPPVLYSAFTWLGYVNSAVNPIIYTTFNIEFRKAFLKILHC

inhibition [1]: 0%
inhibition [2]: 15%
Activity [3]: Active
inhibition [5]: 12%
inhibition (Cricetinae): 10%
concentration at 240 h [6]: 55200 ng/mL
concentration at 240 h [7]: 38300 ng/mL
inhibition (Mus musculus): 15%
inhibition [8]: inactive
inhibition [9]: -5.2%
inhibition [10]: 5.1%
inhibition [13]: 3%
inhibition [14]: inactive
inhibition (Rattus norvegicus [16]): 1%
inhibition [18]: inactive
inhibition [19]: inactive
inhibition [20]: 3%
inhibition [21]: -2%
inhibition [23]: -4.8%
inhibition [26]: 3%
inhibition (Rattus norvegicus [28]): 11%
inhibition [29]: 27%
Compound: O=C(O)c1c(O)cccc1CCc1ccc2ccccc2c1
Activity (Danio rerio [4]): Active
CC50 at 24 h [11]: 117 µM
inhibition at 10 µM (hERG (KCNH2)): -14%
Activity (Danio rerio [12]): Active
Activity (Danio rerio [15]): Active
Activity (4T1.2 [17]): Dose-dependent effect
Activity (Danio rerio [22]): Active
Activity (Danio rerio [24]): Active
Activity (Danio rerio [25]): Active
inhibition (4T1.2 [27]): Active

— ChEMBL document CHEMBL4420080, “Inhibitors of sox18 protein activity for treating angiogenesis- and/or lymphangiogenesis-related diseases” (2018)
